# Values joined by “and” are separate entries in the source; they are usually repeats but may differ in a detail not shown here. Equal values may be shown once.
# Tests used:
# neurons in the DMV = assay: Electrophysiological whole-cell patch-clamp recording of brain slices; format: cell-based; settings: during puerarin incubation (concentration: 10 mM), current clamp, brain slices of obese mice
# Method: Obese mouse models fed with a high-fat feed for 12 weeks were taken and myocardially perfused with an artificial cerebrospinal fluid (ACSF), and 200 μm to 300 μm-thick brainstem tissue slices were prepared by vibration slicing; and brain slices were incubated in oxygen at 35° C. for 1 h and then transferred to a patch-clamp system for whole-cell patch-clamp recording. Recorded neurons were selected according to the cellular morphology in the DMV, and a green-fluorescent dye was added to a pipette solution to label cells.
# [1] = target: T1, GABAA receptor in the DMV (Mus musculus, UniProt P22723+P62812); assay: Colocalization staining of puerarin probe with GABAA receptor on brain slices; settings: brain slice tissue, immunofluorescence staining
# T1 construct: from tissue; host or cells: brain slice tissue (DMV)
# obese mouse model = assay: Intraperitoneal puerarin for 20 d in high-fat-diet obese mouse model: body weight, blood lipid, jejunal TG, c-fos staining, oil red O staining; format: in vivo, C57BL/6J mice; settings: brain slice c-fos immunofluorescence, puerarin i.p. 20 d vs control group
# Method: The C57BL/6J mice were used as experimental mice in the present disclosure. The experimental mice each were raised in an SPF-level environment at 22° C. to 24° C. with a 12:12 circadian rhythm, and the experimental mice each were subjected to anaesthesia, analgesia, surgery, intraperitoneal injection, and other experimental operations in accordance with the relevant provisions of animal ethics.
# In the present disclosure, the mice were fed with a high-fat diet in which a mass percentage of fat was 60% for 12 weeks, and when a body weight reached 35 g or more, animal models of alimentary obesity were successfully constructed. At a formal stage of the experiment (starting on day 0 in FIG. 1A, FIG. 3A, FIG. 6A, and FIG. 7A), the mice were raised in single cages, during which a daily food intake of each mouse model was accurately recorded, the feces was collected before and after drug intervention, and a daily body weight curve was recorded.
# A method for determining TG in a sample was as follows: 20 mg to 30 mg of a sample was first weighed, a 5% NP40-containing lysis buffer was added, and a resulting mixture was homogenated and incubated in a metal bath at 95° C. for 5 min, which was repeated twice. […] 2 μl of the supernatant was added to each well, and after a chromogenic reaction was completed, a value of each well was determined by a microplate reader. […]
# [2] = target: T2, γ2 subunit of the GABAA receptor (Gabrg2) in the DMV (Mus musculus, UniProt P22723+P62812); assay: DMV-specific knockdown of Gabrg2 to block puerarin in obese mouse model: body weight, blood lipid, jejunal TG, c-fos; format: in vivo, mice; settings: for Body weight curve change percentage / Jejunal TG level / Blood lipid level: single mice and mean
# T2 construct: from tissue; host or cells: brainstem DMV of living obese mice
# Method: A method for determining TG in a sample was as follows: 20 mg to 30 mg of a sample was first weighed, a 5% NP40-containing lysis buffer was added, and a resulting mixture was homogenated and incubated in a metal bath at 95° C. for 5 min, which was repeated twice. A resulting homogenate was cooled to room temperature and then centrifuged at 15,000 rpm for 2 min to 3 min, and a resulting supernatant was pipetted for determination. A Biovision kit was used to determine TG. 2 μl of the supernatant was added to each well, and after a chromogenic reaction was completed, a value of each well was determined by a microplate reader. TG in the small intestinal tissue was quantified through a standard protein concentration; and a total amount of lipids excreted with the feces was calculated based on a measured value of the feces sample and a total mass of the sample at 24 h.
# Similar to the above experiment, the rAAV-DIO-Gabrg2-shRNA (BrainVTA, China) was used to knock down Gabrg2 (a gene encoding the γ2 subunit of the GABAA receptor) in the DMV in an obese mouse model, and the rAAV-DIO-mCherry (BrainVTA, China) was used as a control group.
# [3] = target: T3, α1 subunit of the GABAA receptor (Gabra1) in the DMV (Mus musculus, UniProt P22723+P62812); assay: DMV-specific knockdown of Gabra1 to block puerarin in obese mouse model: body weight, blood lipid, jejunal TG, c-fos; format: in vivo, mice; settings: for Body weight curve change percentage: single mice and mean
# T3 construct: from tissue; host or cells: brainstem DMV of living obese mice
# GABAA (α1β3γ2) receptor = target: T4, GABAA (α1β3γ2) receptor (Homo sapiens, UniProt P14867+P18507); assay: Bioelectric signal of 293S cell line with GABA and puerarin co-incubation; format: cell-based; settings: 0.5 μM GABA co-incubated with puerarin for 3 min to 5 min
# T4 construct: expressed in transfected cells
# [4] = Puerarin group (control virus in DMV, puerarin i.p. daily), Day 0 baseline
# [5] = Puerarin group (control virus, puerarin i.p. 7 d)
# [6] = Puerarin group (control virus, puerarin i.p. 7 d), mean
# [7] = Puerarin group vs control group
# T3 sequence (P62812 28-455): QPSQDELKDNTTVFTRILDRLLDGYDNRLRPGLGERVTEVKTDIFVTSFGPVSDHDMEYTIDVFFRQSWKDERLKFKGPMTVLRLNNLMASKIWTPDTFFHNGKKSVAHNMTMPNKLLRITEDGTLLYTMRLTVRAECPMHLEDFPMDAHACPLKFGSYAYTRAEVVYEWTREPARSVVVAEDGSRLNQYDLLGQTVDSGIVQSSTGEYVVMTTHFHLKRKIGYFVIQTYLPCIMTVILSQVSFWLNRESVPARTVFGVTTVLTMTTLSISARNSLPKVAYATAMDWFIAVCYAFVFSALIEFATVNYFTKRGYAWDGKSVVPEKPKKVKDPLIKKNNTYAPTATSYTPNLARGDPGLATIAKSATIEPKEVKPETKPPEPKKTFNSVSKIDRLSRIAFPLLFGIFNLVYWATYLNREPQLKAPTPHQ
# T3 sequence (P63080 26-473 partner): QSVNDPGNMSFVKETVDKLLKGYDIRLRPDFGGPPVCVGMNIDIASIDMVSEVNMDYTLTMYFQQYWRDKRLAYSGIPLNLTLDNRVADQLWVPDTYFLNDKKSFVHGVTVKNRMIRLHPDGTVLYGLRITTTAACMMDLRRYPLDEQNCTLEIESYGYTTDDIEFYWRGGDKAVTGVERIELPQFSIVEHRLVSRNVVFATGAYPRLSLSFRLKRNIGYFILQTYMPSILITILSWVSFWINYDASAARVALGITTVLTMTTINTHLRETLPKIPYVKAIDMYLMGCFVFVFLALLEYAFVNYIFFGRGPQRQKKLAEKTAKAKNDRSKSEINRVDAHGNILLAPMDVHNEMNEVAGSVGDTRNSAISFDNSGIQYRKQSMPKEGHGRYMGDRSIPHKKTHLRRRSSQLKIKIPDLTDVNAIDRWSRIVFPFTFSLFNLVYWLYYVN
# T3 sequence (P22723 39-474): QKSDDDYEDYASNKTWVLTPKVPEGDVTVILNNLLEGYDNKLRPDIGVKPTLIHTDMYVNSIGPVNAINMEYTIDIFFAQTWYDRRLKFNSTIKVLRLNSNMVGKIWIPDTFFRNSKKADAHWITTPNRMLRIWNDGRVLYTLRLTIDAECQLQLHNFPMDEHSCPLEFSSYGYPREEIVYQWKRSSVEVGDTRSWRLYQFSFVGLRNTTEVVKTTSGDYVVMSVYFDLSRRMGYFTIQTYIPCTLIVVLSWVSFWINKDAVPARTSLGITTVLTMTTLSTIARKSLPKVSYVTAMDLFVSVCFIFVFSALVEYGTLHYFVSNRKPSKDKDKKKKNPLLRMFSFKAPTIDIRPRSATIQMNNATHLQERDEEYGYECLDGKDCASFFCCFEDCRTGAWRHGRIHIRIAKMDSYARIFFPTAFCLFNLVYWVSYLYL
# T2 sequence (P22723 39-474): as above
# T2 sequence (P62812 28-455): as the sequence (P62812 28-455) above
# T2 sequence (P63080 26-473 partner): as the sequence (P63080 26-473 partner) above
# T4 sequence (P14867 28-456): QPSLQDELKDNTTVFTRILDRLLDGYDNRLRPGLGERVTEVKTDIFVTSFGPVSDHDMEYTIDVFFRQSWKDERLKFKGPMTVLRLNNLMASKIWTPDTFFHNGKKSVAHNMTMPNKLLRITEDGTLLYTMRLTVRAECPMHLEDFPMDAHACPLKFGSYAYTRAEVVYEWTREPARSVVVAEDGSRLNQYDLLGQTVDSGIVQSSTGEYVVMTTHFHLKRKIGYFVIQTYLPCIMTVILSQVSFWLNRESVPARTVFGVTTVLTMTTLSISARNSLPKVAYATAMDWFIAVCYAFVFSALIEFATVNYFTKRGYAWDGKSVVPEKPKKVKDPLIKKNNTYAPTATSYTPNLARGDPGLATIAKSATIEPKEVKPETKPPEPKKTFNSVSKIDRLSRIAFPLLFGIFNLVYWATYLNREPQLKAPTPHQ
# T4 sequence (P28472 26-473 partner): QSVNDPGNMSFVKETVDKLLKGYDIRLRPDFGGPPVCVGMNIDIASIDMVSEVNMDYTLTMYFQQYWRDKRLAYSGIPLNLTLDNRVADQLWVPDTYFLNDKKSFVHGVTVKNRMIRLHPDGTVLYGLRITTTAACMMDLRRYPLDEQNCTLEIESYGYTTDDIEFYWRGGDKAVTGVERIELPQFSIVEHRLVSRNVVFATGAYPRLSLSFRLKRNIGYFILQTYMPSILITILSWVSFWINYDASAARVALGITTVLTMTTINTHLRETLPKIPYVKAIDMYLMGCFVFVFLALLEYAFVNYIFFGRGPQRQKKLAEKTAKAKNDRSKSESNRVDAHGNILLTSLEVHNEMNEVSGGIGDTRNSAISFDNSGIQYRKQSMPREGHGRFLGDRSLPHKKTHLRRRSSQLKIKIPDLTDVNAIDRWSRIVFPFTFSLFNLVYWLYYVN
# T4 sequence (P18507 40-475): as the sequence (P22723 39-474) above
# T1 sequence (P62812 28-455): as the sequence (P62812 28-455) above
# T1 sequence (P63080 26-473 partner): as the sequence (P63080 26-473 partner) above
# T1 sequence (P22723 39-474): as the sequence (P22723 39-474) above
structure (smiles),measurement,setting,value
"O=c1c(-c2ccc(O)cc2)coc2c([C@@H]3O[C@H](CO)[C@@H](O)[C@H](O)[C@H]3O)c(O)ccc12 [Puerarin, puerarin]",Action potential discharge frequency of neurons in the DMV,neurons in the DMV,significantly reduced
same,Membrane potential of neurons in the DMV,neurons in the DMV,slightly lower than the initial baseline
same,Distribution of puerarin probe and colocalization with GABAA receptor staining,[1],enriched in the DMV and showed prominent colocalization with staining of the GABAA receptor
same,Number of c-fos fluorescence signals in the DMV brain region,obese mouse model,smaller than that in the control group
same,Body weight curve change percentage,"[2]; Gγ2 blocking group (Gabrg2 shRNA virus in DMV, puerarin i.p. daily), Day 0 baseline",0.00%
same,Jejunal TG level,"[2]; Gγ2 blocking group (Gabrg2 shRNA virus, puerarin i.p. 7 d)",1.1912 μmol/mg/protein and 1.5075 μmol/mg/protein and 1.6522 μmol/mg/protein and 1.1566 μmol/mg/protein and 1.0093 μmol/mg/protein
same,Jejunal TG level,"[2]; Gγ2 blocking group (Gabrg2 shRNA virus, puerarin i.p. 7 d), mean",1.3034 μmol/mg/protein
same,Body weight curve change percentage,"[2]; Gγ2 blocking group (Gabrg2 shRNA virus, puerarin i.p. daily), Day 1",0.82% and 0.55% and −0.82% and −0.55% and 0.79%
same,Body weight curve change percentage,"[2]; Gγ2 blocking group (Gabrg2 shRNA virus, puerarin i.p. daily), Day 1, mean",0.16%
same,Body weight curve change percentage,"[2]; Gγ2 blocking group (Gabrg2 shRNA virus, puerarin i.p. daily), Day 2",1.37% and −0.28% and 0.27% and 0.54% and −0.81%
same,Body weight curve change percentage,"[2]; Gγ2 blocking group (Gabrg2 shRNA virus, puerarin i.p. daily), Day 2, mean",0.22%
same,Body weight curve change percentage,"[2]; Gγ2 blocking group (Gabrg2 shRNA virus, puerarin i.p. daily), Day 3",0.55% and −1.13% and 0.54% and 1.08% and 1.57%
same,Body weight curve change percentage,"[2]; Gγ2 blocking group (Gabrg2 shRNA virus, puerarin i.p. daily), Day 3, mean",0.52%
same,Body weight curve change percentage,"[2]; Gγ2 blocking group (Gabrg2 shRNA virus, puerarin i.p. daily), Day 4",0.28% and −1.41% and 0.80% and 1.60% and 1.06%
same,Body weight curve change percentage,"[2]; Gγ2 blocking group (Gabrg2 shRNA virus, puerarin i.p. daily), Day 4, mean",0.47%
same,Body weight curve change percentage,"[2]; Gγ2 blocking group (Gabrg2 shRNA virus, puerarin i.p. daily), Day 5",0.55% and −0.56% and 2.62% and 3.41% and 0.79%
same,Body weight curve change percentage,"[2]; Gγ2 blocking group (Gabrg2 shRNA virus, puerarin i.p. daily), Day 5, mean",1.36%
same,Body weight curve change percentage,"[2]; Gγ2 blocking group (Gabrg2 shRNA virus, puerarin i.p. daily), Day 6",0.55% and −0.56% and 2.62% and 3.41% and 1.83%
same,Body weight curve change percentage,"[2]; Gγ2 blocking group (Gabrg2 shRNA virus, puerarin i.p. daily), Day 6, mean",1.57%
same,Body weight curve change percentage,"[2]; Gγ2 blocking group (Gabrg2 shRNA virus, puerarin i.p. daily), Day 7",0.82% and 0.00% and 2.37% and 3.16% and 2.09%
same,Body weight curve change percentage,"[2]; Gγ2 blocking group (Gabrg2 shRNA virus, puerarin i.p. daily), Day 7, mean",1.69%
same,c-fos staining signal of neurons in the DMV,"[2]; Gγ2 blocking group (tissue-specific knockdown of Gabrg2, puerarin i.p.)",could intervene in the inhibitory effect of puerarin on neurons in the DMV
same,Body weight curve change percentage,[2]; [4],0.00%
same,Blood lipid level,[2]; [5],0.6408 mM and 0.7143 mM and 0.8673 mM and 0.7337 mM and 0.7380 mM
same,Jejunal TG level,[2]; [5],0.9191 μmol/mg/protein and 0.8860 μmol/mg/protein and 0.8466 μmol/mg/protein and 0.9139 μmol/mg/protein and 0.7516 μmol/mg/protein
same,Blood lipid level,[2]; [6],0.7388 mM
same,Jejunal TG level,[2]; [6],0.8634 μmol/mg/protein
same,Body weight curve change percentage,"[2]; Puerarin group (control virus, puerarin i.p. daily), Day 1",−1.10% and −1.06% and −0.81% and −0.79% and 0.82%
same,Body weight curve change percentage,"[2]; Puerarin group (control virus, puerarin i.p. daily), Day 1, mean",−0.59%
same,Body weight curve change percentage,"[2]; Puerarin group (control virus, puerarin i.p. daily), Day 2",−0.82% and −1.60% and −0.81% and −1.06% and −1.11%
same,Body weight curve change percentage,"[2]; Puerarin group (control virus, puerarin i.p. daily), Day 2, mean",−1.08%
same,Body weight curve change percentage,"[2]; Puerarin group (control virus, puerarin i.p. daily), Day 3",−2.50% and −0.53% and −2.20% and −1.33% and −1.68%
same,Body weight curve change percentage,"[2]; Puerarin group (control virus, puerarin i.p. daily), Day 3, mean",−1.65%
same,Body weight curve change percentage,"[2]; Puerarin group (control virus, puerarin i.p. daily), Day 4",−3.07% and −2.14% and −2.76% and −1.87% and −0.83%
same,Body weight curve change percentage,"[2]; Puerarin group (control virus, puerarin i.p. daily), Day 5",−4.83% and −2.97% and −1.64% and −5.20%
same,Body weight curve change percentage,"[2]; Puerarin group (control virus, puerarin i.p. daily), Day 5, mean",−3.52%
same,Body weight curve change percentage,"[2]; Puerarin group (control virus, puerarin i.p. daily), Day 6",−5.13% and −4.10% and −3.05% and −5.54% and −3.41%
same,Body weight curve change percentage,"[2]; Puerarin group (control virus, puerarin i.p. daily), Day 6, mean",−4.24%
same,Body weight curve change percentage,"[2]; Puerarin group (control virus, puerarin i.p. daily), Day 7",−6.34% and −4.96% and −3.33% and −5.54% and −3.41%
same,Body weight curve change percentage,"[2]; Puerarin group (control virus, puerarin i.p. daily), Day 7, mean",−4.72%
same,c-fos staining signal of neurons in the DMV,[2]; [7],inhibited by puerarin
same,Body weight curve change percentage,"[3]; Gα1 blocking group (Gabra1 shRNA virus in DMV, puerarin i.p. daily), Day 0 baseline",0.00%
same,Body weight curve change percentage,"[3]; Gα1 blocking group (Gabra1 shRNA virus, puerarin i.p. daily), Day 2",0.70% and 0.68% and 0.80% and 0.69% and 1.06% and 0.91% and 0.82% and 0.83%
same,c-fos staining of brain slices (DMV),"[3]; Gα1 blocking group (tissue-specific knockdown of Gabra1, puerarin i.p.)",would intervene in the inhibitory effect of puerarin on neurons in the DMV
same,Body weight curve change percentage,[3]; [4],0.00%
same,c-fos staining of brain slices (DMV),[3]; [7],less than that of the control group
same,Chloride influx / bioelectric signal change,GABAA (α1β3γ2) receptor,"increased chloride ions would enter cells, causing hyperpolarization"

# Reference: US20240173344A1, “USE OF GABAA RECEPTOR AS TARGET IN PREPARATION OR SCREENING OF DRUG FOR LOWERING BLOOD LIPID LEVEL, TREATING OBESITY, AND/OR IMPROVING METABOLISM” (SHANGHAI INSTITUTE OF ENDOCRINE AND METABOLIC DISEASES, priority 2022, published 2024)
